test system: RXF 393; test: Anticancer activity against human RXF 393 cells assessed as cell growth inhibition at 10 uM incubated for 48 hrs by SRB assay relative to control; assay type: functional; settings: read-out: GI

Q: How did the inhibition of growth at 10 µM turn out when `NS(=O)(=O)c1ccc(Nc2nc(N/N=C/c3ccc([N+](=O)[O-])cc3)nc(Nc3ccccc3)n2)cc1` was run?
A: 105%

test system: HCT-116; test: Anticancer activity against human HCT-116 cells assessed as cell growth inhibition at 10 uM incubated for 48 hrs by SRB assay relative to control; assay type: functional; settings: read-out: GI

Q: `NS(=O)(=O)c1ccc(Nc2nc(N/N=C/c3ccc([N+](=O)[O-])cc3)nc(Nc3ccccc3)n2)cc1` was tested. Which inhibition of growth at 10 µM did it give?
A: 83%

test system: SK-MEL-5; test: Anticancer activity against human SK-MEL-5 cells assessed as cell growth inhibition at 10 uM incubated for 48 hrs by SRB assay relative to control; assay type: functional; settings: read-out: GI

Q: With `NS(=O)(=O)c1ccc(Nc2nc(N/N=C/c3ccc([N+](=O)[O-])cc3)nc(Nc3ccccc3)n2)cc1` as the compound, how does the inhibition of growth at 10 µM read?
A: 67%

test system: UO-31; test: Anticancer activity against human UO-31 cells assessed as cell growth inhibition at 10 uM incubated for 48 hrs by SRB assay relative to control; assay type: functional; settings: read-out: GI

Q: With `NS(=O)(=O)c1ccc(Nc2nc(N/N=C/c3ccc([N+](=O)[O-])cc3)nc(Nc3ccccc3)n2)cc1` as the compound, how does the inhibition of growth at 10 µM read?
A: 18%

test system: OVCAR-5; test: Anticancer activity against human OVCAR-5 cells assessed as cell growth inhibition at 10 uM incubated for 48 hrs by SRB assay relative to control; assay type: functional; settings: read-out: GI

Q: How did the inhibition of growth at 10 µM turn out when `NS(=O)(=O)c1ccc(Nc2nc(N/N=C/c3ccc([N+](=O)[O-])cc3)nc(Nc3ccccc3)n2)cc1` was run?
A: 18%

test system: COLO 205; test: Anticancer activity against human COLO 205 cells assessed as cell growth inhibition at 10 uM incubated for 48 hrs by SRB assay relative to control; assay type: functional; settings: read-out: GI

Q: How did the inhibition of growth at 10 µM turn out when `NS(=O)(=O)c1ccc(Nc2nc(N/N=C/c3ccc([N+](=O)[O-])cc3)nc(Nc3ccccc3)n2)cc1` was run?
A: 76%

test system: SK-MEL-28; test: Anticancer activity against human SK-MEL-28 cells assessed as cell growth inhibition at 10 uM incubated for 48 hrs by SRB assay relative to control; assay type: functional; settings: read-out: GI

Q: How did the inhibition of growth at 10 µM turn out when `NS(=O)(=O)c1ccc(Nc2nc(N/N=C/c3ccc([N+](=O)[O-])cc3)nc(Nc3ccccc3)n2)cc1` was run?
A: 64%

test system: OVCAR-3; test: Anticancer activity against human OVCAR-3 cells assessed as cell growth inhibition at 10 uM incubated for 48 hrs by SRB assay relative to control; assay type: functional; settings: read-out: GI

Q: With `NS(=O)(=O)c1ccc(Nc2nc(N/N=C/c3ccc([N+](=O)[O-])cc3)nc(Nc3ccccc3)n2)cc1` as the compound, how does the inhibition of growth at 10 µM read?
A: 53%

test system: HOP-92; test: Anticancer activity against human HOP-92 cells assessed as cell growth inhibition at 10 uM incubated for 48 hrs by SRB assay relative to control; assay type: functional; settings: read-out: GI

Q: Which inhibition of growth at 10 µM does the source give for `NS(=O)(=O)c1ccc(Nc2nc(N/N=C/c3ccc([N+](=O)[O-])cc3)nc(Nc3ccccc3)n2)cc1` here?
A: 50%

molecular target: Carbonic anhydrase 9 (Homo sapiens, UniProt Q16790); test: Inhibition of recombinant human CA 9 preincubated for 15 mins by phenol red dye based stopped flow CO2 hydration assay; settings: not given

Q: `NS(=O)(=O)c1ccc(Nc2nc(N/N=C/c3ccc([N+](=O)[O-])cc3)nc(Nc3ccccc3)n2)cc1` was tested. Which Ki did it give?
A: 31.7 nM

test system: CCRF-CEM; test: Anticancer activity against human CCRF-CEM cells assessed as cell growth inhibition at 10 uM incubated for 48 hrs by SRB assay relative to control; assay type: functional; settings: read-out: GI

Q: Which inhibition of growth at 10 µM does the source give for `NS(=O)(=O)c1ccc(Nc2nc(N/N=C/c3ccc([N+](=O)[O-])cc3)nc(Nc3ccccc3)n2)cc1` here?
A: 88%

test system: HCC 2998; test: Anticancer activity against human HCC 2998 cells assessed as cell growth inhibition at 10 uM incubated for 48 hrs by SRB assay relative to control; assay type: functional; settings: read-out: GI

Q: How did the inhibition of growth at 10 µM turn out when `NS(=O)(=O)c1ccc(Nc2nc(N/N=C/c3ccc([N+](=O)[O-])cc3)nc(Nc3ccccc3)n2)cc1` was run?
A: 80%

test system: NCI-H460; test: Anticancer activity against human NCI-H460 cells assessed as cell growth inhibition at 10 uM incubated for 48 hrs by SRB assay relative to control; assay type: functional; settings: read-out: GI

Q: How did the inhibition of growth at 10 µM turn out when `NS(=O)(=O)c1ccc(Nc2nc(N/N=C/c3ccc([N+](=O)[O-])cc3)nc(Nc3ccccc3)n2)cc1` was run?
A: 98%

test system: U-251; test: Anticancer activity against human U-251 cells assessed as cell growth inhibition at 10 uM incubated for 48 hrs by SRB assay relative to control; assay type: functional; settings: read-out: GI

Q: With `NS(=O)(=O)c1ccc(Nc2nc(N/N=C/c3ccc([N+](=O)[O-])cc3)nc(Nc3ccccc3)n2)cc1` as the compound, how does the inhibition of growth at 10 µM read?
A: 81%

test system: SNB-19; test: Anticancer activity against human SNB-19 cells assessed as cell growth inhibition at 10 uM incubated for 48 hrs by SRB assay relative to control; assay type: functional; settings: read-out: GI

Q: With `NS(=O)(=O)c1ccc(Nc2nc(N/N=C/c3ccc([N+](=O)[O-])cc3)nc(Nc3ccccc3)n2)cc1` as the compound, how does the inhibition of growth at 10 µM read?
A: 79%

test system: IGROV-1; test: Anticancer activity against human IGROV-1 cells assessed as cell growth inhibition at 10 uM incubated for 48 hrs by SRB assay relative to control; assay type: functional; settings: read-out: GI

Q: With `NS(=O)(=O)c1ccc(Nc2nc(N/N=C/c3ccc([N+](=O)[O-])cc3)nc(Nc3ccccc3)n2)cc1` as the compound, how does the inhibition of growth at 10 µM read?
A: 47%

test system: SW-620; test: Anticancer activity against human SW-620 cells assessed as cell growth inhibition at 10 uM incubated for 48 hrs by SRB assay relative to control; assay type: functional; settings: read-out: GI

Q: For `NS(=O)(=O)c1ccc(Nc2nc(N/N=C/c3ccc([N+](=O)[O-])cc3)nc(Nc3ccccc3)n2)cc1`, which inhibition of growth at 10 µM is on record?
A: 81%

test system: CAKI-1; test: Anticancer activity against human CAKI-1 cells assessed as cell growth inhibition at 10 uM incubated for 48 hrs by SRB assay relative to control; assay type: functional; settings: read-out: GI

Q: For `NS(=O)(=O)c1ccc(Nc2nc(N/N=C/c3ccc([N+](=O)[O-])cc3)nc(Nc3ccccc3)n2)cc1`, which inhibition of growth at 10 µM is on record?
A: 49%

test system: MDA-MB-468; test: Anticancer activity against human MDA-MB-468 cells assessed as cell growth inhibition at 10 uM incubated for 48 hrs by SRB assay relative to control; assay type: functional; settings: read-out: GI

Q: For `NS(=O)(=O)c1ccc(Nc2nc(N/N=C/c3ccc([N+](=O)[O-])cc3)nc(Nc3ccccc3)n2)cc1`, which inhibition of growth at 10 µM is on record?
A: 98%

test system: HT-29; test: Anticancer activity against human HT-29 cells assessed as cell growth inhibition at 10 uM incubated for 48 hrs by SRB assay relative to control; assay type: functional; settings: read-out: GI

Q: Which inhibition of growth at 10 µM does the source give for `NS(=O)(=O)c1ccc(Nc2nc(N/N=C/c3ccc([N+](=O)[O-])cc3)nc(Nc3ccccc3)n2)cc1` here?
A: 75%

— ChEMBL document CHEMBL5154747, “Discovery of new carbonic anhydrase IX inhibitors as anticancer agents by toning the hydrophobic and hydrophilic rims of the active site to encounter the dual-tail approach” (Eur J Med Chem, 2022)
